Measured values reported in patent US11234945B2, “Wound healing composition” (AGENCY FOR SCIENCE, TECHNOLOGY AND RESEARCH, priority 2016, dated 2022).
Entries after “also recorded” stand apart in the source; their conditions may differ.

Key:
[1] = test system: intestinal epithelial cell; details: rodents, cited from earlier work
[2] = test system: AMD1; assay: AMD1 up-regulation post scratch (immunofluorescence, western blot); assay type: cell-based, human; details: combined pre-treatment: 1 μM Tg 24 hours and 2 mM EGTA 1 hour; 6 hours post scratch
Procedure: (§1) It was then sought to determine if the up-regulation of AMD1 at the wound-edge was dependent on the wound-induced calcium wave. Human keratinocytes were labelled with the Ca^2+ probe Fluo-4 for 30 minutes prior to scratching to mimic a wound response. […] To assess the impact of a reduced calcium wave on up-regulation of AMD1, cells were pre-treated for 24 hours with 1 μM thapsigargin (Tg) and for 1 hour with 2 mM EGTA prior to scratch to deplete internal calcium stores and extracellular calcium, respectively.
(§2) Keratinocytes were seeded in glass-bottom 35-mm^2 dishes and cultured to full confluency in cell culture media. To deplete intracellular and extracellular Ca^2+ sources, cells were treated with 1 μM thapsigargin (Tg) (Sigma-Aldrich) for 24 hours and 2 mM ethylene glycol tetraacetic acid (EGTA, Sigma-Aldrich) for 1 hour prior to scratch. For Ca^2+ flux imaging, cells were incubated with Fluo-4,AM (Life Technologies; Thermo Fisher Scientific) and imaged with an automated confocal microscope (Spinning disk 3D-FRAP; Nikon Ti) at 0.2 second intervals for 5 minutes. Image analysis was performed using ImageJ software.

[3] = test system: N/TERT-1 keratinocytes; assay: In vitro scratch cell migration assay; assay type: cell-based, human; details: for cell migration / closure of scratch wound: control keratinocytes, 5 μM added 48 h prior to scratch, Incucyte wound width
Procedure: (§3) Human immortalized keratinocytes (Dickson et al., 2000), N/TERT-1 were obtained and cultured in keratinocyte serum-free media (K-SFM; Life Technologies; Thermo Fisher Scientific) supplemented with 25 μg/ml bovine pituitary extract (BPE), 0.2 ng/ml epidermal growth factor (EGF), and 0.3 mM CaCl2, as previously described (Rheinwald et al., 2002). To culture cells to 100% confluence for scratch assays, N/TERT-1 cells were first cultured to 50% confluence in supplemented K-SFM growth medium and then switched to a media with a 1:1 ratio mixture of supplemented K-SFM and DF-K (a mixture of calcium free, glutamine free DMEM (Hyclone; GE Healthcare) with Ham's F-12/GlutaMAX (Gibco; Life Technologies; Thermo Fisher Scientific) at 1:1 (vol/vol) supplemented with 5 μg/ml BPE, 0.2 ng/ml EGF, and 1.5 mM L-glutamine (Life Technologies; Thermo Fisher Scientific)) until 100% confluent. Human HEK293T cells (Dharmacon; GE Healthcare) were used for lentiviral production as the packaging cell line and cultured in high glucose DMEM (Hyclone; GE Healthcare) with 10% fetal calf serum. All cells were grown in a humidified incubator with 5% CO2 at 37° C.
In Vitro Scratch Cell Migration Assay
Confluent keratinocytes on ImageLock 96-well microplates (Essen BioScience, Inc) were scratched using a 96-pin wound maker (Essen BioScience, Inc) to create homogeneous, 700-800-μm wide scratch wounds in cell monolayers. Scratched cells were imaged using a real-time cell imaging system, IncuCyte, (Essen BioScience, Inc) to monitor cell migration. Putrescine, spermidine, or spermine (5 μM, Sigma-Aldrich) were added to cells and incubated for 48 h prior to scratch. For analysis of protein and RNA expression in migrating cells, keratinocytes were cultured to full confluency in a 6-well culture dish (Corning Costar) and scratched with the large end of a 1-mL pipette tip. At specific time points, the cells were either harvested in lysis buffer (150 mM sodium chloride, 1% (v/v) Triton X-100, 0.5% sodium deoxycholate, 1% (v/v) sodium dodecyl sulfate, 50 mM Tris-HCl, 1% (v/v) Nonidet P-40 (NP-40), 0.1 mM phenylmethylsulfonyl fluoride (PMSF), 5 mM EDTA, and 1% (v/v) protease and phosphatase inhibitor cocktail) for western blot or Trizol reagent (Life Technologies; Thermo Fisher Scientific) for RNA analysis.

[4] = test system: scratch-induced calcium wave in keratinocytes; assay: Calcium wave imaging after scratch (Fluo-4); assay type: cell-based, human; details: combined pre-treatment: 1 μM Tg 24 hours and 2 mM EGTA 1 hour prior to scratch
Procedure: as §1, §2

[5] = test system: human ex vivo wounds; assay: Human ex vivo excisional skin wounds, epithelial tongue length; assay type: cell-based; details: 500 μM topically every 24 hours for 3 days; examined after 72 hours; PBS control
Source text: Human skin samples were sourced from Dr T. C. Lim at the Yong Loo Lin School of Medicine, National University of Singapore. Written consent from participants was obtained in all cases. The study was done in accordance with the declaration of Helsinki and was approved by a local scientific ethics review board. The skin was further dissected into 6-mm cubes or circles. Excisional skin wounds of approximately 3 to 4 mm were made with surgical scissors. The ex vivo wounded skin explants were cultured at the air-liquid interface and treated topically with 500 μM of putrescine, spermidine, spermine or 1× phosphate-buffered saline (PBS) every 24 hours for 3 days. Non-wounded skin, day 0- and day 3-wounded biopsies were bisected, with half snap-frozen in Optimal Cutting Temperature Compound (OCT) and the other half fixed in 10% buffered formalin saline and embedded in paraffin for histological analysis.
Histological sections were prepared from wound tissue embedded in paraffin or snap-frozen in OCT. […] Images were acquired using a fluorescence microscope (Zeiss AxioImager Z1; Carl Zeiss). […]

[6] = test system: sh-AMD1 keratinocytes; details: supplementation in cell culture media, listed as Spermine
Procedure: as §3
Confluent keratinocytes on ImageLock 96-well microplates (Essen BioScience, Inc) were scratched using a 96-pin wound maker (Essen BioScience, Inc) to create homogeneous, 700-800-μm wide scratch wounds in cell monolayers. […]

For `NCCCC(N)(C(=O)O)C(F)F` (racemic) [DFMO, (RS)-2,5-diamino-2-(difluoromethyl)pentanoic acid], the “intestinal epithelial cell migration and proliferation” value ([1]; ODC1 inhibition) is given as “prevents intestinal epithelial cell migration and proliferation”.

In the case of `O=C(O)CN(CCN(CC(=O)O)CC(=O)O)CC(=O)O` [EDTA], the “AMD1 up-regulation in scratched cells” value [2] was “completely abrogates AMD1 protein up-regulation”.

With `CCC(/C=N/N=C(N)N)=N\N=C(N)N` [EGBG, reference compound] the “cell migration after AMD1 inhibitor” value ([3]; data not shown, concentration not given) was “resulted in a similar delay in cell migration”.

In the case of `O=C(O)CN(CCOCCOCCN(CC(=O)O)CC(=O)O)CC(=O)O` [EGTA, ethylene glycol tetraacetic acid], the “propagation of calcium wave upon scratch” value [4] was “effectively prevented the calcium wave” and the “AMD1 up-regulation in scratched cells” value [2] was “completely abrogated”.

In the case of `NCCCCN` [putrescine, butane-1,4-diamine, reference compound], the “cell migration / closure of scratch wound” value (“cell migration / closure” below) [3] is given as “significantly impedes cell migration”, the “cell migration / closure” value ([3]; listed as Putrescine) is given as “caused an inhibition of keratinocyte migration and a delay in closure of the scratch wound” and the “rescue of DFMO effect on intestinal epithelial cell migration and proliferation” value ([1]; supplementation after DFMO) is given as “can be rescued through supplementation with putrescine”.

For `NCCCCNCCCN` [spermidine, 1,4-butanediamine, N-(3-aminopropyl)], the “epithelial tongue migration / wound repair” value [5] was “promoted a striking improvement in epithelial tongue migration; also recorded: promote wound repair of excisional human skin wounds”.

For `NCCCNCCCCNCCCN` [spermine, 1,4-butanediamine, N,N′-bis(3-aminopropyl)], the “epithelial tongue migration / wound repair” value [5] was “promoted a striking improvement in epithelial tongue migration; also recorded: promote wound repair of excisional human skin wounds”, the “restoration of impaired cell migration in AMD1-knockdown keratinocytes” value [6] was “restores impaired cell migration in sh-AMD1 keratinocytes” and the “cell migration / closure” value [3] was “promoted scratch wound closure in the control cells; also recorded: sufficient to drive increased cell migration”. The “cell migration / closure” value ([3]; listed as Spermine) was “promotes the closure of scratch wounds in keratinocytes” and the “rescue of EGBG-induced delay in cell migration” value ([3]; keratinocytes treated with EGBG, data not shown) was “similarly rescued by the addition of spermine”.

With `C/C=C(/C)C(=O)O[C@H]1C(C)=C2[C@H]([C@@H]1OC(=O)CCCCCCC)[C@@](C)(OC(C)=O)C[C@H](OC(=O)CCC)[C@@]1(O)[C@H]2OC(=O)[C@@]1(C)O` [thapsigargin] the “propagation of calcium wave upon scratch” value [4] was “effectively prevented the calcium wave” and the “AMD1 up-regulation in scratched cells” value [2] was “completely abrogated; also recorded: completely abrogates AMD1 protein up-regulation”.
